Test results as given in ChEMBL document CHEMBL1136303, “4-(2-pyridyl)piperazine-1-carboxamides: potent vanilloid receptor 1 antagonists” (Bioorg Med Chem Lett, 2003).

Key:
[1] = target: T1, Transient receptor potential cation channel subfamily V member 1 (Rattus norvegicus, UniProt O35433); assay: Vanilloid receptor subtype 1 antagonist activity based on its ability to block capsaicin-induced (CAP) activation of the rat VR1 channel in a HEK293 cell line; format: functional
[2] = target: T1, Transient receptor potential cation channel subfamily V member 1; assay: Vanilloid receptor subtype 1 antagonist activity based on its ability to block low pH-induced activation of the rat VR1 channel in a HEK293 cell line; format: functional
[3] = Tmax in rat by po administration at a dose of 40 mg/kg; format: ADME, organism-based; parameters: dose 40 mg/kg, route oral; settings: in vivo
[4] = Cmax in rat by po administration at a dose of 40 mg/kg; format: ADME, organism-based; parameters: dose 40 mg/kg, route oral; settings: in vivo
[5] = Oral bioavailability in rat by po administration at a dose of 40 mg/kg; format: ADME, organism-based; settings: in vivo
[6] = Pharmacokinetic (PK) parameter Vz in rat; format: ADME, organism-based; settings: in vivo, read-out: Vz
[7] = Plasma clearance in rat by iv administration at a dose of 3 mg/kg; format: ADME, organism-based; parameters: dose 3 mg/kg, route intravenous
[8] = Half life period in rat by iv administration at a dose of 3 mg/kg; format: ADME, organism-based; parameters: dose 3 mg/kg, route intravenous; settings: in vivo

T1 sequence (O35433 whole entry): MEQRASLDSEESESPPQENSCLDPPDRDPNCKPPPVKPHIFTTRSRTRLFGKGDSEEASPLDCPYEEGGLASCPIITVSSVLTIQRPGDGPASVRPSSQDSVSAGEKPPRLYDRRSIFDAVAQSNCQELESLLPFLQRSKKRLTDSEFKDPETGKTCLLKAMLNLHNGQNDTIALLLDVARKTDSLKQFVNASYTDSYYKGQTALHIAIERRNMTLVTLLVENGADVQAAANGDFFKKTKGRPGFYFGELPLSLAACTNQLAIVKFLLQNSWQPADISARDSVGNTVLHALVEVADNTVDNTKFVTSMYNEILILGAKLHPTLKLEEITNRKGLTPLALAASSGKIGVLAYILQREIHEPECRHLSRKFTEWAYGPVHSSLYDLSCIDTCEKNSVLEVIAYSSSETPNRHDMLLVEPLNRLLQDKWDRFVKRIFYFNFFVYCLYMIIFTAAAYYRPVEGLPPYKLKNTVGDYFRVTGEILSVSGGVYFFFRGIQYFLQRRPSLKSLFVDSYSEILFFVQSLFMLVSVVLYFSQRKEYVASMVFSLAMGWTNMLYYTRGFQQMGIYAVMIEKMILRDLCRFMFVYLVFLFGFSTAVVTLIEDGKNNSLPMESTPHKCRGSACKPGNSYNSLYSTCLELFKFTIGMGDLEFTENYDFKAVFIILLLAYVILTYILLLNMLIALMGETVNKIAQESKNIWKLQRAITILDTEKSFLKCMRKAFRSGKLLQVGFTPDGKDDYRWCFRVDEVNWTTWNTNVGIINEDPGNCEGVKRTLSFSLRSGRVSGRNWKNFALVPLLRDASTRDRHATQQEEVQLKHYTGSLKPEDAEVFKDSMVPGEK

Row | IC50 [1] | IC50 [2] | other results | Compound
1 | 111 nM | 121 nM |  | CCc1ccc(NC(=O)N2CCN(c3ncccc3C(F)(F)F)CC2)cc1
2 | 27.7 nM | 61.5 nM |  | CC(C)c1ccc(NC(=O)N2CCN(c3ncccc3C(F)F)CC2)cc1
3 | 25.3 nM | 173 nM |  | Cc1cccnc1N1CCN(C(=O)Nc2ccc(C(C)C)cc2)CC1
4 | 201 nM | 1400 nM |  | CC(C)c1ccc(NC(=O)N2CCN(c3ncccc3C=O)CC2)cc1
5 | 63.5 nM | 81.4 nM |  | O=C(Nc1ccc(C(F)(F)F)cc1)N1CCN(c2ncccc2Cl)CC1
6 | 230 nM | 828 nM |  | CCc1cccnc1N1CCN(C(=O)Nc2ccc(C(C)C)cc2)CC1
7 | 17.4 nM | 23.3 nM |  | CCC(C)c1ccc(NC(=O)N2CCN(c3ncccc3Cl)CC2)cc1 (stereo not drawn)
8 | 29.8 nM | 91.7 nM |  | O=C(Nc1ccc(C2CCCCC2)cc1)N1CCN(c2ncccc2Cl)CC1
9 | 56.7 nM | 77.4 nM |  | CC(C)c1ccc(NC(=O)N2CCN(c3ncccc3I)CC2)cc1
10 | 190 nM | 245 nM |  | CC(C)c1ccc(NC(=O)N2CCN(c3ncccc3[N+](=O)[O-])CC2)cc1
11 | 93.2 nM | 261 nM |  | O=C(Nc1ccc(OC(F)(F)F)cc1)N1CCN(c2ncccc2Cl)CC1
12 | 479 nM | 278 nM |  | O=C(Nc1ccc2ccccc2c1)N1CCN(c2ncccc2Cl)CC1
13 | 117 nM | 203 nM |  | CCCCc1ccc(NC(=O)N2CCN(c3ncccc3Cl)CC2)cc1
14 | 11.5 nM |  |  | CC(C)c1ccc(NC(=O)N2CCN(c3ncccc3Cl)CC2)cc1
15 | 287 nM | > 25000 nM |  | CC(C)c1ccc(NC(=O)N2CCN(c3ncccc3C#N)CC2)cc1
16 | 285 nM | 310 nM |  | O=C(Nc1ccc(I)cc1)N1CCN(c2ncccc2Cl)CC1

Row | IC50 [1] | IC50 [2] | other results | Compound
17 | 3.9 nM | 17.2 nM |  | CC(C)(C)[C@H]1CC[C@H](NC(=O)N2CCN(c3ncccc3Cl)CC2)CC1
18 | 556 nM |  |  | Cc1ccc(NC(=O)N2CCN(c3ncccc3C(F)(F)F)CC2)cc1
19 | 872 nM | 575 nM |  | CC(C)c1ccc(NC(=S)N2CCN(c3ncccc3C(F)(F)F)CC2)cc1
20 | 246 nM | 441 nM |  | CC(C)(C)c1ccc(NC(=S)N2CCN(c3ncccc3C(F)(F)F)CC2)cc1
21 | 491 nM | 1010 nM |  | O=C(Nc1ccc(Br)cc1)N1CCN(c2ncccc2Cl)CC1
22 | 655 nM |  |  | O=C(Nc1ccc(Cl)cc1)N1CCN(c2ncccc2Cl)CC1
23 | 11.3 nM | 57.7 nM |  | CC(C)(C)c1ccc(NC(=O)N2CCN(c3ncccc3C(F)(F)F)CC2)cc1
24 | 1360 nM | 5180 nM |  | CCCCc1ccc(NC(=O)N2CCN(c3ncccc3C(F)(F)F)CC2)cc1
25 | 4.6 nM | 27.1 nM |  | CC(C)c1ccc(NC(=O)N2CCN(c3ncccc3Br)CC2)cc1
26 | 107 nM | 56.6 nM |  | CCc1ccc(NC(=O)N2CCN(c3ncccc3Cl)CC2)cc1
27 | 1110 nM | > 25000 nM |  | O=C(Nc1ccc([N+](=O)[O-])cc1)N1CCN(c2ncccc2Cl)CC1
28 | 57.5 nM |  |  | CC(C)c1ccc(NC(=O)N2CCN(c3ncccc3C(F)(F)F)CC2)cc1
29 | 258 nM | 916 nM |  | O=C(Nc1ccc(Oc2ccccc2)cc1)N1CCN(c2ncccc2C(F)(F)F)CC1
30 |  |  | Tmax [3]: 30 min; Cmax [4]: 1120 ng/mL; bioavailability [5]: 15.1%; Vd [6]: 5.8 L/kg; clearance [7]: 76.7 mL/min/kg; half-life [8]: 54 min | CC(C)(C)c1ccc(NC(=O)N2CCN(c3ncccc3Cl)CC2)cc1
31 | 41.6 nM | 73 nM |  | CCCc1ccc(NC(=O)N2CCN(c3ncccc3Cl)CC2)cc1
32 | 58 nM |  |  | Oc1cc2c(cc1O)CN(C(=S)NCCc1ccc(Cl)cc1)CCC2 [CAPSAZEPINE]
